# Assay results from the supplement of paper PMC10331698.
# ± gives the standard deviation of the averaged measurements.
# Experiments:
# Assay in all cases: level (log10 ratio to DMSO vehicle control); higher = higher biomarker level / cell amount than vehicle control
# [1] = compound: O=S(=O)(Cl)C(F)(F)C(F)(F)C(F)(F)C(F)(F)C(F)(F)C(F)(F)C(F)(F)C(F)(F)F [Perfluoro-1-octanesulfonyl chloride]; conditions: in DMSO
# Method: (§1)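 BioMAP Diversity Plus panel of 12 human primary cell co-culture systems (3C, 4H, LPS, SAg, BT, BF4T, BE3C, CASM3C, HDF3CGF, KF3CT, MyoF, Mphg). Compounds were added 1 h before stimulation and left for 24 h (MyoF 48 h; BT 72 h for soluble read-outs or 6 d for IgG). Biomarkers were read by ELISA, cytotoxicity by SRB, PBMC viability and proliferation by Alamar Blue. Each well value was divided by the mean of 8 DMSO control wells on the same plate and log10 transformed; duplicate blinded samples were tested at 4 concentrations.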
# Nonafluoropentanamide = compound: NC(=O)C(F)(F)C(F)(F)C(F)(F)C(F)(F)F [Nonafluoropentanamide]; conditions: in DMSO
# Method: as §1
# [2] = compound: O=C(O)C(F)(F)C(F)(F)C(F)(F)C(F)(F)C(F)(F)C(F)(F)C(F)(F)C(F)(F)C(F)(F)C(F)F [11-H-Perfluoroundecanoic acid]; conditions: in DMSO
# Method: as §1
# [3] = compound: NS(=O)(=O)C(F)(F)C(F)(F)C(F)(F)C(F)(F)C(F)(F)C(F)(F)F [Perfluorohexanesulfonamide]; conditions: in DMSO
# Method: as §1
# [4] = compound: O=S(=O)(F)C(F)(F)C(F)(F)C(F)(F)C(F)(F)C(F)(F)C(F)(F)C(F)(F)C(F)(F)F [Perfluorooctanesulfonyl fluoride]; conditions: in DMSO
# Method: as §1
# [5] = compound: NC(=O)C(F)(F)C(F)(F)C(F)(F)C(F)F; conditions: in DMSO
# Method: as §1
# Hexafluoroamylene glycol = compound: OCC(F)(F)C(F)(F)C(F)(F)CO [Hexafluoroamylene glycol]; conditions: in DMSO
# Method: as §1
# [6] = compound: O=S(=O)(O)C(F)(F)C(F)(F)C(F)(F)C(F)(F)C(F)(F)C(F)(F)C(F)(F)C(F)(F)C(F)(F)C(F)(F)F [Sodium perfluorodecanesulfonate]; conditions: in DMSO
# Method: as §1
# Octafluoroadipamide = compound: NC(=O)C(F)(F)C(F)(F)C(F)(F)C(F)(F)C(N)=O [Octafluoroadipamide]; conditions: in DMSO
# Method: as §1
# [7] = compound: C=CC(=O)OCC(F)(F)C(F)(F)C(F)(F)COC(=O)C=C [1H,1H,5H,5H-Perfluoro-1,5-pentanediol diacrylate]; conditions: 6700 nM; in DMSO
# Method: as §1
# [8] = compound: O=C(O)C=CC(F)(C(F)(F)F)C(F)(F)F [3-(Perfluoroisopropyl)-2-propenoic acid]; conditions: in DMSO
# Method: as §1
# [9] = compound: FC(F)(F)C(F)(F)C(F)(F)C(F)(F)C(F)(F)C(F)(F)C(F)(F)I [1-Iodopentadecafluoroheptane]; conditions: in DMSO
# Method: as §1
# [10] = compound: COC(=O)C(F)(F)C(F)(F)OC(F)(C(F)(F)F)C(F)(F)OC(F)=C(F)F [Methyl perfluoro(3-(1-ethenyloxypropan-2-yloxy)propanoate)]; conditions: in DMSO
# Method: as §1
# [11] = compound: C=C(C)C(=O)OCCC(F)(F)C(F)(F)C(F)(F)C(F)(F)C(F)(F)C(F)(F)F [6:2 Fluorotelomer methacrylate]; conditions: in DMSO
# Method: as §1
# [12] = compound: O=S(=O)(O)CCC(F)(F)C(F)(F)C(F)(F)C(F)(F)C(F)(F)C(F)(F)F [6:2 Fluorotelomer sulfonic acid]; conditions: in DMSO
# Method: as §1
# Heptafluorobutyl iodide = compound: FC(F)(F)C(F)(F)C(F)(F)CI [Heptafluorobutyl iodide]; conditions: in DMSO
# Method: as §1
# [13] = compound: FC(F)(F)C(F)(F)CNCC(F)(F)C(F)(F)F [Bis(1H,1H-perfluoropropyl)amine]; conditions: in DMSO
# Method: as §1
# [14] = compound: FC(F)(F)C(F)(F)C(F)(F)C(F)(F)C(F)(F)C(F)(F)CC1CO1 [3-(Perfluorohexyl)-1,2-epoxypropane]; conditions: in DMSO
# Method: as §1
# [15] = compound: FC(F)(F)C(F)(F)C(F)(F)CC1CO1 [1H,1H-Heptafluorobutyl epoxide]; conditions: in DMSO
# Method: as §1
test system,measurement,setting,value
4H:CD106/VCAM-1,level (log10),[1]; 6700 nM,-0.0025 ± 0.052
same,level (log10),[1]; 20000 nM,-0.0035 ± 0.023
same,level (log10),[1]; 60000 nM,-0.0305 ± 0.0064
same,level (log10),Nonafluoropentanamide; 6700 nM,0.003 ± 0.0028
same,level (log10),Nonafluoropentanamide; 20000 nM,0.0095 ± 0.0064
same,level (log10),Nonafluoropentanamide; 60000 nM,0.008 ± 0.013
same,level (log10),[2]; 6700 nM,-0.0135 ± 0.016
same,level (log10),[2]; 20000 nM,-0.0015 ± 0.03
same,level (log10),[3]; 6700 nM,-0.0245 ± 0.011
same,level (log10),[3]; 20000 nM,-0.0165 ± 0.015
same,level (log10),[3]; 60000 nM,-0.08 ± 0.034
same,level (log10),[4]; 6700 nM,0.0005 ± 0.015
same,level (log10),[4]; 20000 nM,-0.0105 ± 0.012
same,level (log10),[4]; 60000 nM,-0.012 ± 0.011
same,level (log10),[5]; 6700 nM,-0.0145 ± 0.005
same,level (log10),[5]; 20000 nM,-0.021 ± 0.0085
same,level (log10),[5]; 60000 nM,-0.007 ± 0.0057
same,level (log10),Hexafluoroamylene glycol; 6700 nM,0.0165 ± 0.029
same,level (log10),Hexafluoroamylene glycol; 20000 nM,0.0075 ± 0.013
same,level (log10),Hexafluoroamylene glycol; 60000 nM,0.033 ± 0.017
same,level (log10),[6]; 1500 nM,-0.018 ± 0.011
same,level (log10),[6]; 4400 nM,-0.0295 ± 0.005
same,level (log10),[6]; 13000 nM,-0.007 ± 0.0085
same,level (log10),[6]; 40000 nM,-0.0615 ± 0.0092
same,level (log10),Octafluoroadipamide; 6700 nM,0.0105 ± 0.028
same,level (log10),Octafluoroadipamide; 20000 nM,0.015
same,level (log10),Octafluoroadipamide; 60000 nM,0.0235 ± 0.018
same,level (log10),[7],-0.032 ± 0.045
same,level (log10),[8]; 6700 nM,0.0275 ± 0.011
same,level (log10),[8]; 20000 nM,-0.0175 ± 0.019
same,level (log10),[8]; 60000 nM,0.016 ± 0.0014
same,level (log10),[9]; 6700 nM,-0.018 ± 0.0042
same,level (log10),[9]; 20000 nM,-0.0005 ± 0.0035
same,level (log10),[10]; 6700 nM,-0.01 ± 0.0028
same,level (log10),[10]; 20000 nM,-0.0385 ± 0.0035
same,level (log10),[11]; 6700 nM,-0.002 ± 0.021
same,level (log10),[11]; 20000 nM,-0.013 ± 0.0099
same,level (log10),[11]; 60000 nM,-0.0045 ± 0.015
same,level (log10),[12]; 6700 nM,-0.0415 ± 0.0078
same,level (log10),[12]; 20000 nM,-0.0245 ± 0.0021
same,level (log10),[12]; 60000 nM,-0.0625 ± 0.033
same,level (log10),Heptafluorobutyl iodide; 6700 nM,-0.0215 ± 0.005
same,level (log10),Heptafluorobutyl iodide; 20000 nM,-0.0345 ± 0.026
same,level (log10),Heptafluorobutyl iodide; 60000 nM,0.0155 ± 0.012
same,level (log10),[13]; 6700 nM,0.0125 ± 0.016
same,level (log10),[13]; 20000 nM,0.006 ± 0.035
same,level (log10),[13]; 60000 nM,0.0155 ± 0.039
same,level (log10),[14]; 6700 nM,-0.002 ± 0.027
same,level (log10),[14]; 20000 nM,-0.0225 ± 0.00071
same,level (log10),[14]; 60000 nM,-0.0025 ± 0.011
same,level (log10),[15]; 6700 nM,-0.0035 ± 0.033
same,level (log10),[15]; 20000 nM,0.0125 ± 0.073
same,level (log10),[15]; 60000 nM,0.007 ± 0.078
BT:sIL-6,level (log10),[1]; 6700 nM,0.0135 ± 0.016
same,level (log10),[1]; 20000 nM,0.043 ± 0.025
same,level (log10),[1]; 60000 nM,0.0195 ± 0.033
same,level (log10),Nonafluoropentanamide; 6700 nM,-0.0015 ± 0.039
same,level (log10),Nonafluoropentanamide; 20000 nM,-0.0035 ± 0.036
same,level (log10),Nonafluoropentanamide; 60000 nM,-0.0665 ± 0.03
same,level (log10),[2]; 6700 nM,-0.033 ± 0.034
same,level (log10),[2]; 20000 nM,-0.0465 ± 0.046
same,level (log10),[3]; 6700 nM,0.013 ± 0.09
same,level (log10),[3]; 20000 nM,-0.0025 ± 0.061
same,level (log10),[3]; 60000 nM,-0.0455 ± 0.037
same,level (log10),[4]; 6700 nM,-0.055 ± 0.037
same,level (log10),[4]; 20000 nM,-0.021 ± 0.047
same,level (log10),[4]; 60000 nM,-0.037 ± 0.048
same,level (log10),[5]; 6700 nM,0.0315 ± 0.074
same,level (log10),[5]; 20000 nM,-0.0335 ± 0.023
same,level (log10),[5]; 60000 nM,-0.0795 ± 0.11
same,level (log10),Hexafluoroamylene glycol; 6700 nM,0.0575 ± 0.0078
same,level (log10),Hexafluoroamylene glycol; 20000 nM,0.015 ± 0.031
same,level (log10),Hexafluoroamylene glycol; 60000 nM,0.014 ± 0.021
same,level (log10),[6]; 1500 nM,0 ± 0.031
same,level (log10),[6]; 4400 nM,-0.0045 ± 0.026
same,level (log10),[6]; 13000 nM,-0.036 ± 0.1
same,level (log10),[6]; 40000 nM,-0.0235 ± 0.05
same,level (log10),Octafluoroadipamide; 6700 nM,0.0215 ± 0.037
same,level (log10),Octafluoroadipamide; 20000 nM,0.024 ± 0.0057
same,level (log10),Octafluoroadipamide; 60000 nM,0.0065 ± 0.016
same,level (log10),[7],-0.692 ± 0.031
same,level (log10),[8]; 6700 nM,0.032 ± 0.089
same,level (log10),[8]; 20000 nM,-0.0455 ± 0.056
same,level (log10),[8]; 60000 nM,-0.025 ± 0.03
same,level (log10),[9]; 6700 nM,-0.0825 ± 0.0078
same,level (log10),[9]; 20000 nM,0.024 ± 0.044
same,level (log10),[10]; 6700 nM,0.016 ± 0.024
same,level (log10),[10]; 20000 nM,0.0175 ± 0.047
same,level (log10),[11]; 6700 nM,0.017 ± 0.014
same,level (log10),[11]; 20000 nM,0.059 ± 0.017
same,level (log10),[11]; 60000 nM,-0.004 ± 0.089
same,level (log10),[12]; 6700 nM,0.0255 ± 0.039
same,level (log10),[12]; 20000 nM,0.0375 ± 0.016
same,level (log10),[12]; 60000 nM,0.003 ± 0.052
same,level (log10),Heptafluorobutyl iodide; 6700 nM,0.0525 ± 0.0092
same,level (log10),Heptafluorobutyl iodide; 20000 nM,0.0485 ± 0.0035
same,level (log10),Heptafluorobutyl iodide; 60000 nM,0.003 ± 0.014
same,level (log10),[13]; 6700 nM,0.0285 ± 0.0064
same,level (log10),[13]; 20000 nM,0.02 ± 0.013
same,level (log10),[13]; 60000 nM,0.0245 ± 0.011
same,level (log10),[14]; 6700 nM,0.007 ± 0.079
same,level (log10),[14]; 20000 nM,0.014 ± 0.025
same,level (log10),[14]; 60000 nM,-0.019 ± 0.02
same,level (log10),[15]; 6700 nM,0.002 ± 0.0014
same,level (log10),[15]; 20000 nM,-0.023 ± 0.042
same,level (log10),[15]; 60000 nM,-0.0725 ± 0.071
